Values belong to the compound of their own block, whether it stands above or below them.
Experiments:
[1] = test system: Anti-cAMP primary antibody (GenScript A01509); assay: cAMP Lumit immunoassay: cAMP standard curve, specificity and competition testing; format: binding; details: n = 2; for Luminescence signal drop on titration instead of cAMP (specificity): concentrations up to 10 µM, Fig. 2C,D; for Interference with cAMP standard curve: metabolite included at 10 µM in cAMP titration, Fig. 2E,F
β-Adrenergic receptor = assay: cAMP detection in A375 cells, endogenous β-Adrenergic receptor; format: cell-based; details: Fig. 5C, n = 3; for Change of cAMP levels, β-Adrenergic antagonist: in the presence of 50 nM Isopreterenol; for Change of cAMP levels, β-Adrenergic agonist: 5 min treatment
Procedure: (§1) Media was removed from wells and 5µL of the diluted compounds were added to each well. […] Plates were mixed on an orbital shaker for 5 min at 400 rpm. […] 5µL of 2% trichloroacetic acid (TCA, Fisher Scientific SA9410-500) in water were added to wells to terminate reactions and lyse cells. […] Plates were mixed on an orbital shaker for 5 min at 400 rpm. […] Plates were mixed on an orbital shaker for 5 min at 400 rpm then incubated for 30 min at room temperature. […] Luminescence signal was measured on a GloMax Discover Microplate Reader within 15 min.
(§2) The assays were conducted by treatment of cells followed by lysis with 2% TCA, which also terminates the reactions. Cell lysates were then incubated with antibodies and tracer diluted in 0.3 M Tris buffer (pH 9.0; for neutralization) for 30 min after which time the detection reagent was added.

PDE4A1A = target: T1, PDE4A1A (Homo sapiens, UniProt P27815); assay: PDE4 inhibition study (cAMP Lumit detection); format: biochemical; details: 20 ng PDE4A1A per reaction, 10 µM cAMP, n = 2, Fig. 4
T1 construct: purchased BPS Biosciences 60040
T1 sequence (P27815 1-647 isoform P27815-4): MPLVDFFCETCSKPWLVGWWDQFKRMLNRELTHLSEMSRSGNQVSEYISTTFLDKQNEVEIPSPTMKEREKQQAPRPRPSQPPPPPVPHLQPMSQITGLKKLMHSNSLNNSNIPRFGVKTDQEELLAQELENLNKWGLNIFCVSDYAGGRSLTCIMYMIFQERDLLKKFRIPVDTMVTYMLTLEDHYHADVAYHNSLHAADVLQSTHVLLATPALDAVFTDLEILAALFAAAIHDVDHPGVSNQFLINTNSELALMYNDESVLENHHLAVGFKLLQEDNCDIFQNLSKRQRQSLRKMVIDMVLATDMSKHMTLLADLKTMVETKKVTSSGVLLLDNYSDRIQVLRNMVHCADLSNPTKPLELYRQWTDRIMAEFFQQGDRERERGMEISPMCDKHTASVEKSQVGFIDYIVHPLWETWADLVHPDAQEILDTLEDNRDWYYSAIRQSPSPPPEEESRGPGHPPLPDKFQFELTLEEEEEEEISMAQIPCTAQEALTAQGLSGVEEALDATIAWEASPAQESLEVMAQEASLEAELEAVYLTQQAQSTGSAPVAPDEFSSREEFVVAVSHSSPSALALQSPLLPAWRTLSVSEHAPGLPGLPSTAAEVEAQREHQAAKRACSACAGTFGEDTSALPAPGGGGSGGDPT
Procedure: Plates were mixed on an orbital shaker for 5 min at 400 rpm.

HEK293 cells = assay: cAMP detection in HEK293 cells treated with Forskolin; format: cell-based; details: 30 min treatment, Fig. 5D, n = 3
Procedure: as §1, §2

Adenosine receptor = assay: cAMP detection in A375 cells, endogenous Adenosine receptor; format: cell-based; details: 1 h treatment, Fig. 5D, n = 3
Procedure: as §1, §2

Dopamine D1 = Dopamine D1 (Homo sapiens, UniProt P21728); assay: cAMP detection in HEK293 cells stably transfected with DRD1; format: cell-based; details: n = 3
Chain of Dopamine D1 (P21728 whole entry): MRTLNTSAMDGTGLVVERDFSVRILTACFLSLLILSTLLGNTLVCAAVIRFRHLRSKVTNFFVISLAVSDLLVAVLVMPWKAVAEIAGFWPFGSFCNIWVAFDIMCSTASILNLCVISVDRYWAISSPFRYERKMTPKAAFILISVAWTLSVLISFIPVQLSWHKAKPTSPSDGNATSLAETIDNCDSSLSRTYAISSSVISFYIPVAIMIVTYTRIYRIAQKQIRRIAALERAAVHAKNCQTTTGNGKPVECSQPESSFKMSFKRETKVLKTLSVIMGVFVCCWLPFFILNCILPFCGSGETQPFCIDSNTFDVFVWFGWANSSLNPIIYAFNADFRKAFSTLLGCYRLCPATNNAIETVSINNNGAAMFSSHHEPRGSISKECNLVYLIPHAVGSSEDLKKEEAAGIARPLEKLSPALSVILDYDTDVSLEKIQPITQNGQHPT
Procedure: as §1, §2

Structure (SMILES): Nc1nc2c(ncn2[C@@H]2O[C@@H]3COP(=O)(O)O[C@H]4[C@@H](O)[C@H](n5cnc6c(N)ncnc65)O[C@@H]4COP(=O)(O)O[C@@H]2[C@@H]3O)c(=O)[nH]1 [2′3′-cGAMP, 2′3′-cyclic guanosine monophosphate-adenosine monophosphate]
Luminescence signal drop on titration instead of cAMP (specificity) [1]: None of the tested metabolites resulted in a significant luminescence signal drop
Interference with cAMP standard curve [1]: no effect

Structure (SMILES): Nc1nc2c(ncn2[C@@H]2O[C@@H]3COP(=O)(O)O[C@H]4[C@@H](O)[C@H](n5cnc6c(N)ncnc65)O[C@@H]4COP(=O)(O)O[C@H]3[C@H]2O)c(=O)[nH]1 [3′3′-cGAMP, 3′3′-cyclic guanosine monophosphate-adenosine monophosphate]
Luminescence signal drop on titration instead of cAMP (specificity) [1]: None of the tested metabolites resulted in a significant luminescence signal drop
Interference with cAMP standard curve [1]: no effect

Structure (SMILES): C=CCc1ccccc1OCC(O)CNC(C)C (stereo not drawn) [Alprenolol]
Change of cAMP levels, β-Adrenergic antagonist (β-Adrenergic receptor): cAMP levels reduction

IC50 (PDE4A1A): 7.3 nM
Structure (SMILES): CCOc1ccccc1C(=O)NCc1coc(-c2ccc(OC(F)F)c(OC(C)C)c2)n1 [Difamilast]

Structure (SMILES): CNC[C@H](O)c1ccc(O)c(O)c1 [Epinephrine]
Change of cAMP levels, β-Adrenergic agonist (β-Adrenergic receptor): cAMP levels increase

Structure (SMILES): C=C[C@@]1(C)CC(=O)[C@]2(O)[C@@]3(C)[C@@H](O)CCC(C)(C)[C@@H]3[C@H](O)[C@H](OC(C)=O)[C@@]2(C)O1 [Forskolin]
Change of cAMP levels (HEK293 cells): cAMP levels increase

Structure (SMILES): CC(C)NCC(O)c1ccc(O)c(O)c1 (stereo not drawn) [Isopreterenol, Isoproterenol]
Change of cAMP levels, β-Adrenergic agonist (β-Adrenergic receptor): cAMP levels increase

Structure (SMILES): CCNC(=O)[C@H]1O[C@@H](n2cnc3c(N)ncnc32)[C@H](O)[C@@H]1O [NECA]
Change of cAMP levels, Adenosine receptor agonist (Adenosine receptor): cAMP levels increase

Structure (SMILES): CC(C)NCC(O)COc1cccc2ccccc12 (stereo not drawn) [Propranolol]
Change of cAMP levels, β-Adrenergic antagonist (β-Adrenergic receptor): cAMP levels reduction

Change of cAMP levels, DRD1 antagonist (Dopamine D1; HEK293 stably transfected with DRD1, in the presence of 100 nM SKF38393, Fig. 5A): cAMP levels reduction
Structure (SMILES): CN1CCc2cc(Cl)c(O)cc2[C@@H](c2ccccc2)C1 [SCH23390]

Change of cAMP levels, DRD1 agonist (Dopamine D1; HEK293 stably transfected with DRD1, 1 h treatment, Fig. 5A): cAMP levels increase
Structure (SMILES): Oc1cc2c(cc1O)C(c1ccccc1)CNCC2 (stereo not drawn) [SKF38393]

Structure (SMILES): Nc1nc2c(ncn2[C@@H]2O[C@@H]3COP(=O)(O)O[C@H]3[C@H]2O)c(=O)[nH]1 [cGMP, cyclic guanosine monophosphate]
Luminescence signal drop on titration instead of cAMP (specificity) [1]: None of the tested metabolites resulted in a significant luminescence signal drop
Interference with cAMP standard curve [1]: no effect

From paper PMC10891162 (Scientific Reports, 2024)
